Results taken from ChEMBL document CHEMBL1201862, “PubChem BioAssay data set” (2004).
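Values below derive from 48-hour exposures of cells grown in 96-well plates, with endpoints linearly interpolated between the two concentrations bracketing the appropriate inhibition level. GI50 is the concentration that inhibits growth by half.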 Activity calls are given as the source filed them. Rule as the data show it: active = GI50 up to about 1.1 µM and inactive = higher.

Tests used:
Assay in all cases: inhibition of tumour cell growth, NCI panel, 48 h
NCI-H522 = test system: NCI-H522
CCRF-CEM = test system: CCRF-CEM
M14 = test system: M14
RPMI-8226 = test system: RPMI-8226
A549 = test system: A549
K562 = test system: K562
OVCAR-3 = test system: OVCAR-3
NCI-H460 = test system: NCI-H460
UACC-62 = test system: UACC-62
ACHN = test system: ACHN
U-251 = test system: U-251
NCI-H23 = test system: NCI-H23
IGROV-1 = test system: IGROV-1
A498 = test system: A498
SNB-19 = test system: SNB-19
EKVX = test system: EKVX
UACC-257 = test system: UACC-257
HOP-92 = test system: HOP-92
SW-620 = test system: SW-620
SNB-75 = test system: SNB-75

SMILES	GI50 (NCI-H522)	GI50 (CCRF-CEM)	GI50 (M14)	GI50 (RPMI-8226)	GI50 (A549)	GI50 (K562)	GI50 (OVCAR-3)	GI50 (NCI-H460)	GI50 (UACC-62)	GI50 (ACHN)	GI50 (U-251)	GI50 (NCI-H23)	GI50 (IGROV-1)	GI50 (A498)	GI50 (SNB-19)	GI50 (EKVX)	GI50 (UACC-257)	GI50 (HOP-92)	GI50 (SW-620)	GI50 (SNB-75)
CO[C@H]1[C@@H](O)[C@@H](C)O[C@@H](O[C@H]2CC[C@@]3(C)[C@H](CC[C@@H]4[C@@H]3CC[C@]3(C)[C@@H](C5=CC(=O)OC5)[C@@H](OC(C)=O)C[C@]43O)C2)[C@@H]1O [NERITALOSIDE]	0.0142 µM (active)	0.029 µM (active)	0.0904 µM (active)	0.17 µM (active)	0.0104 µM (active)	0.141 µM (active)	0.0229 µM (active)	0.0165 µM (active)	0.1 µM (active)	0.0188 µM (active)	0.0798 µM (active)	0.027 µM (active)	0.0371 µM (active)	0.281 µM (active)	0.144 µM (active)	0.0156 µM (active)	0.1 µM (active)	0.149 µM (active)	0.111 µM (active)	0.112 µM (active)
CCOC(=O)NC(Nc1ccc(F)cc1F)(C(F)(F)F)C(F)(F)F	> 100 µM (inactive)	> 100 µM (inactive)	> 100 µM (inactive)	> 100 µM (inactive)	> 100 µM (inactive)	> 100 µM (inactive)	> 100 µM (inactive)	> 100 µM (inactive)	> 100 µM (inactive)	> 100 µM (inactive)	> 100 µM (inactive)	> 100 µM (inactive)	> 100 µM (inactive)	> 100 µM (inactive)	> 100 µM (inactive)	> 100 µM (inactive)	> 100 µM (inactive)	> 100 µM (inactive)	> 100 µM (inactive)	> 100 µM (inactive)
N#Cc1cc2c(cc1Cl)Sc1nccn1S2(=O)=O	1.15 µM (inactive)	0.506 µM (active)	0.619 µM (active)	2.92 µM (inactive)	12.8 µM (inactive)	2.69 µM (inactive)	0.668 µM (active)	9.53 µM (inactive)	2.55 µM (inactive)	2.08 µM (inactive)	1.6 µM (inactive)	1.51 µM (inactive)	6.38 µM (inactive)	18.3 µM (inactive)	8.2 µM (inactive)	14.5 µM (inactive)	2.21 µM (inactive)	4.93 µM (inactive)	3.54 µM (inactive)	7.53 µM (inactive)
O=C1c2ccccc2C(=O)[C@@]23O[C@@]12C1(Oc2cccc4cccc(c24)O1)[C@@H]1O[C@@H]1[C@@H]3O	3.36 µM (inactive)	1.76 µM (inactive)	8.97 µM (inactive)	2.68 µM (inactive)	18.4 µM (inactive)	2.23 µM (inactive)	4.65 µM (inactive)	9.86 µM (inactive)	14.2 µM (inactive)	12.5 µM (inactive)	7.1 µM (inactive)	13.6 µM (inactive)	13.6 µM (inactive)	26.9 µM (inactive)	13.3 µM (inactive)	20.5 µM (inactive)	15.8 µM (inactive)	15.8 µM (inactive)	6.93 µM (inactive)	10.7 µM (inactive)
